Converted amounts (≈) assume the structure as drawn.

Data set [1] can be described thus: Stability in dog liver microsome. The settings on record: 2 μM, 37° C., 30 minutes.
Data set [2] can be described thus: Stability in rat liver microsome. The settings on record: 2 μM, 37° C., 30 minutes. Background: Microsomes from liver hold many membrane-bound enzymes, among them those of drug oxidation.
The nature of data set [3]: Stability in human liver microsome. The settings on record: 2 μM, 37° C., 30 minutes.
Description: Experimental instruments: thermostatic shaker (SHA-B, Guohua Electric Appliance Co., Ltd.); centrifuge (5810R, Eppendorf); mass spectrometry (API4000, Applied Biosystems, USA); liquid chromatography (LC-30AD, Shimadzu); sample injector (CTC Analytics AG System, CTC).
Experimental process: 25 μg/mL alamethicin (Aldrich), 5 mM magnesium chloride and 0.5 mg/mL microsome (XENOTECH) were added to 100 mM phosphate buffer to obtain a coenzyme-free reaction solution. A portion of the coenzyme-free reaction solution was added with 1 mM reductive nicotinamide adenine dinucleotide phosphate (Aldrich) and 5 mM uridine diphosphate glucuronic acid (Aldrich) to obtain a coenzyme-containing reaction solution. The working solution of the compound of the present invention was added to the two reaction solutions so that the final concentration of the compound was 2 μM. Immediately after mixing well, 50 μL of the solution were taken out as the 0 minute sample, and 50 μL of the remaining sample were taken out after incubating at 37° C. for 30 minutes. All the samples taken out were immediately processed to precipitate protein, and centrifuged to obtain a supernate for the determination of the compound concentration by LC/MS/MS.
Data set [4] can be described thus: Determination of water solubility in phosphate buffer. It is filed as physicochemical. The following applies: for solubility at 24 h: thermodynamic from solid; for water solubility compared with nitroxoline: conclusion in words. An excerpt: Experimental instruments: 96-well filter plate (MSHVN4510 or MSHVN4550, Millipore); electronic digital display vortex mixer (MS3 Digital, IKA); multi-purpose vacuum pump (circulating water type, SHB-111, Zhengzhou Greatwall Scientific Industrial and Trade Co., Ltd.); balance (XSLT05, Mettler-Toledo); comfortable mixer (Eppendorf AG 22331 Hamburg, Eppendorf); liquid chromatography (LC-3AD, Shimadzu); mass spectrometry (API4000, Applied Biosystems, USA); sample injector (Anylytics AG System, CTC). Nitroxoline was prepared according to the method disclosed in Journal of Heterocyclic Chemistry, 1971, vol. 8, p 821 by Wisdom Pharmaceutical Co., Ltd.
Experimental process: 500 μL of phosphate buffer (pH=1.2, 4.5, 6.8 or 7.4) were added to a glass flask, to which 2 mg of compound powder were added. The flask was sealed with a cap and shaked on a mixer (VORTEX-GENIE2) at room temperature for 24 hours. The solution was subjected to vacuum filtration, and the filtrate was processed to determine the compound concentration by LC/MS/MS.

A short description of data set [5]: Stability in mouse liver microsome. It is filed as in vitro ADME. The settings on record: 2 μM, 37° C., 30 minutes.
The mark [6] stands for this setting: aqueous buffer, phosphate buffer pH 7.4, room temperature.

With `CC(C)(C)OC(=O)N[C@@H](Cc1ccccc1)C(=O)OCOc1ccc([N+](=O)[O-])c2cccnc12` [Compound 13, (S)-(5-Nitroquinolin-8-yloxy)methyl 2-(tert-butoxycarbonylamino)-3-phenylpropionate], the “Percentage of the compound remaining in dog liver microsome” value in data set [1] (with coenzyme) and in data set [1] (without coenzyme) was 0.02% throughout. The “Percentage of the compound remaining in rat liver microsome” value in data set [2] (with coenzyme) worked out at 0.01%; in data set [2] (without coenzyme), 0.02%. The “Percentage of the compound remaining in human liver microsome” value in data set [3] (with coenzyme) is reported as 0.01%; in data set [3] (without coenzyme), 0.02%.
Take `CCC(=O)OCOc1ccc([N+](=O)[O-])c2cccnc12` [Compound 2, (5-nitroquinolin-8-yloxy)methyl propionate]: the figures for the “Percentage of the compound remaining in dog liver microsome” value in data set [1] (with coenzyme) and in data set [1] (without coenzyme) were 0.13% and 0.18%, respectively. The figures for the “Percentage of the compound remaining in rat liver microsome” value in data set [2] (with coenzyme) and in data set [2] (without coenzyme) were 0.52% and 0.45%, respectively. Besides, the solubility at 24 h in data set [4] (setting [6]) was determined as 72.7 µg/mL (≈ 263 µM). The “Percentage of the compound remaining in human liver microsome” value is 0.27% in data set [3] (with coenzyme) and 0.16% in data set [3] (without coenzyme). For the same compound, the “Percentage of the compound remaining in mouse liver microsome” value in data set [5] (with coenzyme) was found to be 0.10%; in data set [5] (without coenzyme) it was 0.02%.
Regarding `CC(C)(C)OC(=O)NCCCCCCC(=O)OCOc1ccc([N+](=O)[O-])c2cccnc12` [Compound 12, (5-nitroquinolin-8-yloxy)methyl 7-(tert-butoxycarbonylamino)heptanoate], the “Percentage of the compound remaining in dog liver microsome” value was 0.00% in data set [1] (with coenzyme) and 0.02% in data set [1] (without coenzyme). Also, the “Percentage of the compound remaining in rat liver microsome” value in data set [2] (with coenzyme) is reported as 0.00%; in data set [2] (without coenzyme), 0.02%. In data set [4] (setting [6]), this compound had a solubility at 24 h of 1.85 µg/mL (≈ 4.13 µM). Further, the “Percentage of the compound remaining in human liver microsome” value in data set [3] (with coenzyme) was found to be 0.00%; in data set [3] (without coenzyme), 0.03%.
Regarding `CCC(=O)OC(C)Oc1ccc([N+](=O)[O-])c2cccnc12` (stereo not shown) [Compound 48, 1-(5-nitroquinolin-8-yloxy)ethyl propionate], the “Percentage of the compound remaining in dog liver microsome” value was 0.03% in data set [1] (with coenzyme) and 0.02% in data set [1] (without coenzyme). Moreover, the results for the “Percentage of the compound remaining in rat liver microsome” value in data set [2] (with coenzyme) and in data set [2] (without coenzyme) were 0.06% and 0.03%, respectively. Further, the “Percentage of the compound remaining in human liver microsome” value in data set [3] (with coenzyme) amounted to 0.08%; in data set [3] (without coenzyme) it was 0.10%. The “Percentage of the compound remaining in mouse liver microsome” value amounted to 0.03% in data set [5] (with coenzyme) and 0.05% in data set [5] (without coenzyme).
Turning to `CC(=O)OCOc1ccc([N+](=O)[O-])c2cccnc12` [Compound 1, (5-nitroquinolin-8-yloxy)methyl acetate], the “Percentage of the compound remaining in dog liver microsome” value in data set [1] (with coenzyme) was determined as 0.42%; in data set [1] (without coenzyme) it was 0.73%. Further, the “Percentage of the compound remaining in rat liver microsome” value in data set [2] (with coenzyme) was 0.15%; in data set [2] (without coenzyme) it was 0.27%. In data set [4] (setting [6]), this compound registered a solubility at 24 h of 91.1 µg/mL. Moreover, the “Percentage of the compound remaining in human liver microsome” value was determined as 0.24% in data set [3] (with coenzyme) and 0.76% in data set [3] (without coenzyme). The entries for the “Percentage of the compound remaining in mouse liver microsome” value in data set [5] (with coenzyme) and in data set [5] (without coenzyme) were 0.16% and 0.27%, respectively.
As for `O=C(CCCCCCCO)OCOc1ccc([N+](=O)[O-])c2cccnc12` [Compound 10, (5-nitroquinolin-8-yloxy)methyl 8-hydroxyoctanoate], the “Percentage of the compound remaining in dog liver microsome” value in data set [1] (with coenzyme) is reported as 0.01%; in data set [1] (without coenzyme) it was 0.04%. The “Percentage of the compound remaining in rat liver microsome” value was 0.02% in data set [2] (with coenzyme) and 0.03% in data set [2] (without coenzyme). This compound also displayed a solubility at 24 h in data set [4] (setting [6]) of 39.1 µg/mL (≈ 108 µM). In addition, the “Percentage of the compound remaining in human liver microsome” value is 0.01% in data set [3] (with coenzyme) and 0.04% in data set [3] (without coenzyme).
`CC(=O)N(C)CC(=O)OCc1cccnc1N(C)C(=O)OCOc1ccc([N+](=O)[O-])c2cccnc12` [Compound 65]: the “Percentage of the compound remaining in dog liver microsome” value came to 65.08% in data set [1] (with coenzyme) and 93.36% in data set [1] (without coenzyme). For the same compound, the “Percentage of the compound remaining in rat liver microsome” value in data set [2] (with coenzyme) is reported as 4.33%; in data set [2] (without coenzyme), 59.38%. The compound further came in with a solubility at 24 h in data set [4] (setting [6]) of 965 µg/mL (≈ 1940 µM). Also, in data set [4], the “water solubility compared with nitroxoline” value is reported as “increased by several times”. The “Percentage of the compound remaining in human liver microsome” value is recorded as 29.88% in data set [3] (with coenzyme) and 39.15% in data set [3] (without coenzyme). Also, the “Percentage of the compound remaining in mouse liver microsome” value in data set [5] (with coenzyme) was found to be 0.72%; in data set [5] (without coenzyme), 2.63%.
With `CN(C)C(=O)Oc1ccc([N+](=O)[O-])c2cccnc12` [Compound 78, 5-nitroquinolin-8-yl dimethylcarbamate], the “Percentage of the compound remaining in dog liver microsome” value in data set [1] (with coenzyme) turned out to be 0.36%; in data set [1] (without coenzyme), 98.41%. The figures for the “Percentage of the compound remaining in rat liver microsome” value in data set [2] (with coenzyme) and in data set [2] (without coenzyme) were 2.40% and 91.50%, respectively. The solubility at 24 h in data set [4] (setting [6]) was 226 µg/mL (≈ 863 µM). In addition, the “Percentage of the compound remaining in human liver microsome” value came to 14.46% in data set [3] (with coenzyme) and 90.37% in data set [3] (without coenzyme). In addition, the “Percentage of the compound remaining in mouse liver microsome” value in data set [5] (with coenzyme) stood at 0.00%; in data set [5] (without coenzyme), 100.18%.
In the case of `O=C(CCCCC(=O)OCOc1ccc([N+](=O)[O-])c2cccnc12)OCOc1ccc([N+](=O)[O-])c2cccnc12` [Compound 46, bis(5-nitroquinolin-8-yloxy)-methyl adipate], the figures for the “Percentage of the compound remaining in dog liver microsome” value in data set [1] (with coenzyme) and in data set [1] (without coenzyme) were 0.01% and 0.03%, respectively. The figures for the “Percentage of the compound remaining in rat liver microsome” value in data set [2] (with coenzyme) and in data set [2] (without coenzyme) were 0.00% and 0.05%, respectively. Besides, the figures for the “Percentage of the compound remaining in human liver microsome” value in data set [3] (with coenzyme) and in data set [3] (without coenzyme) were 0.00% and 0.06%, respectively.
Take `CCCOC(=O)N1CCC[C@H]1C(=O)OCOc1ccc([N+](=O)[O-])c2cccnc12` [Compound 18, (S)-2-(5-nitroquinolin-8-yloxy)methyl 1-propyl pyrrolidine-1,2-dicarboxylate]: the “Percentage of the compound remaining in dog liver microsome” value in data set [1] (with coenzyme) was determined as 0.14%; in data set [1] (without coenzyme), 1.40%. In addition, the results for the “Percentage of the compound remaining in rat liver microsome” value in data set [2] (with coenzyme) and in data set [2] (without coenzyme) were 0.06% and 4.63%, respectively. The compound further returned a solubility at 24 h in data set [4] (setting [6]) of 132 µg/mL (≈ 328 µM). For the same compound, the “water solubility compared with nitroxoline” value in data set [4] was “increased by several times”. Moreover, the “Percentage of the compound remaining in human liver microsome” value in data set [3] (with coenzyme) was 2.65%; in data set [3] (without coenzyme), 5.06%. The “Percentage of the compound remaining in mouse liver microsome” value is on record as 0.26% in data set [5] (with coenzyme) and 0.00% in data set [5] (without coenzyme).
As for `CC(=O)N[C@@H](CC(C)C)C(=O)NCC(=O)OCOc1ccc([N+](=O)[O-])c2cccnc12` [Compound 15, (S)-(5-nitroquinolin-8-yloxy)methyl 2-(2-acetamido-4-methylpentanamido)acetate], the solubility at 24 h in data set [4] (setting [6]) worked out at 205 µg/mL (≈ 475 µM).
Turning to `CC(=O)N[C@@H](Cc1ccc(O)cc1)C(=O)N1CCC[C@H]1C(=O)OCOc1ccc([N+](=O)[O-])c2cccnc12` [Compound 28, (S)-(5-nitroquinolin-8-yloxy)methyl 1-((S)-2-acetamido-3-(4-hydroxyphenyl)propionyl)pyrrolidine-2-carboxylate], the solubility at 24 h in data set [4] (setting [6]) was 25.1 µg/mL (≈ 48.1 µM); in data set [4] (simulated gastric fluid, phosphate buffer pH 1.2, room temperature), 342 µg/mL (≈ 654 µM).
Compound `O=C(OCOc1ccc([N+](=O)[O-])c2cccnc12)[C@@H]1CCCN1C(=O)c1ccccn1` [Compound 25, (S)-(5-nitroquinolin-8-yloxy)methyl 1-pyridineformylpyrrolidine-2-carboxylate] came in with a solubility at 24 h in data set [4] (setting [6]) of 275 µg/mL (≈ 651 µM).
Same read-out and setting: the figure for `Cc1oc(=O)oc1COc1ccc([N+](=O)[O-])c2cccnc12` [Compound 77, 4-methyl-5-((5-nitroquinolin-8-yloxy)methyl)-1,3-dioxol-2-one] is 21.2 µg/mL (≈ 70.3 µM).
For `COC(=O)CCCCC(=O)OCOc1ccc([N+](=O)[O-])c2cccnc12` [Compound 11, methyl (5-nitroquinolin-8-yloxy)methyl adipate], the “Percentage of the compound remaining in dog liver microsome” value is listed as 0.01% in data set [1] (with coenzyme) and 0.04% in data set [1] (without coenzyme). Moreover, the “Percentage of the compound remaining in rat liver microsome” value in data set [2] (with coenzyme) is reported as 0.05%; in data set [2] (without coenzyme) it was 0.03%. The compound also returned a solubility at 24 h in data set [4] (setting [6]) of 66.9 µg/mL (≈ 185 µM). The “Percentage of the compound remaining in human liver microsome” value in data set [3] (with coenzyme) and in data set [3] (without coenzyme) was 0.01% in each case.
As for `O=C(CN1CCOCC1)OCOc1ccc([N+](=O)[O-])c2cccnc12` [Compound 36, (5-nitroquinolin-8-yloxy)methyl 2-morpholinoacetate], the solubility at 24 h in data set [4] (setting [6]) amounted to 298 µg/mL (≈ 858 µM).

As usually defined, the solubility is the dissolved amount per volume that the medium holds.
